According to the METLIN SMRT retention time set (Domingo-Almenara et al. 2019):

Experiment: gradient 5% acetonitrile 3 min, to 50% in 2 min, to 85% in 15 min, held 3 min, 100 µL/min
Settings: column: Zorbax Extend-C18 2.1 x 50 mm; eluents: water / acetonitrile, 0.1% formic acid
Summary of the method: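 Retention times of pure standards were taken from adduct peaks that were selected by computer and manually inspected. Over 3 months, mixtures of ~100 molecules were run by HPLC–quadrupole time-of-flight mass spectrometry in positive and negative ionization mode. The Zorbax Extend-C18 column (2.1 × 50 mm, 1.8 μm) ran at 100 μL/min in water and acetonitrile, each containing 0.1% formic acid, with 40 μL dead volume and 900 μL dwell volume.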

Row | SMILES | RP-LC retention time [s]
1 | COC(=O)c1c(NC(=O)c2cc(C)no2)sc(C)c1C | 1030
2 | COc1ccc(C2C=C(c3ccc4c(c3)OCO4)Oc3c2c(=O)oc2ccccc32)cc1OC (centres undefined) | 1090
3 | COc1ccc(-c2nc(NC3CCCCCC3)c3ccccc3n2)cc1 | 934
4 | Cc1ccc(NC(=O)Cn2nc(N3CCC(C)CC3)c3ccccc3c2=O)c(C)c1 | 1160
5 | O=C(Nc1ccc(F)c(F)c1)c1cccn1Cc1noc(C2CC2)n1 | 966
6 | COc1ccc(-c2ccc(N3CCN(C(=O)Cc4cn(C)c5ccccc45)CC3)nn2)cc1 | 656
7 | CCc1noc(NC(C)=O)c1-c1ccc(OC)c(S(=O)(=O)NCc2ccc(OC)cc2)c1 | 758
8 | CC(C)c1ccc(CN2C[C@@H]3C(=O)N(CCc4ccccc4)C(=O)[C@@H]3C2)cc1 | 772
9 | COCC(=O)N1CCC(Oc2nccnc2N(C)C)C1 (centres undefined) | 598
10 | O=C(CC(c1cccs1)n1cccc1)N1CCN(c2ccccn2)CC1 (centres undefined) | 659
11 | CSc1ccccc1CN1CCC(CNC(=O)c2cc(=O)c3ccccc3o2)CC1 | 564
12 | CCc1nc(-c2csc(S(=O)(=O)N3CCC(C(=O)Nc4ccc(C)cc4C)CC3)c2)no1 | 1090
13 | CCOc1nc2ccccc2nc1N1CCCC(C(=O)NCc2cccnc2)C1 (centres undefined) | 684
14 | COc1cc(-c2noc(Cn3nc4ccc(-c5ccccc5)nn4c3=O)n2)cc(OC)c1OC | 862
15 | CCOC(=O)Cn1c(=N)n(CCN2CCOCC2)c2ccccc21 | 548
16 | O=c1c(NCCc2ccc(Cl)cc2)nc2ccncc2n1Cc1ccccc1 | 766
17 | COCCOC1CN(C2CCN(C(=O)c3ccc(C)s3)CC2)C12CCCCC2 (centres undefined) | 656
18 | COC(=O)c1ccc2c(=O)n(-c3ccccc3)c(N3CCN(C)CC3)nc2c1 | 624
19 | COc1ccc(C2C(C(=O)c3cccs3)=C(O)C(=O)N2CCCN2CCOCC2)cc1OC (centres undefined) | 613
20 | CCc1nc(-c2csc(S(=O)(=O)N3CCCC(C(=O)Nc4ccc(C)cn4)C3)c2)no1 (centres undefined) | 831
21 | CCCn1c(=O)sc2cc(S(=O)(=O)N3CCC(C(=O)N4CCCCCC4)CC3)ccc21 | 937
22 | CCNC(=O)CCc1nc2ccccc2n(CC(=O)Nc2cccc(C(=O)OCC)c2)c1=O | 775
23 | CC(C)NC(=O)c1ccccc1OCC1CCCNC1 (centres undefined) | 583
24 | Cc1ccc(S(=O)(=O)N2CC(=O)N(Cc3ccccc3)C(C)(C(=O)NCc3ccccc3)C2)cc1 (centres undefined) | 1010
25 | O=C(CCCSc1ccc(NC(=O)C2CC2)nn1)NCc1ccccc1Cl | 754
26 | O=C(NC1CCCCC1)N1CC(F)(F)C[C@H]1CN1CCc2ccccc2C1 | 792
27 | Cc1nnsc1C(=O)NCc1c(F)cccc1Cl | 861

Row | SMILES | RP-LC retention time [s]
28 | CN(C)C(=O)c1ccc2c(c1)nc(CN(C)C(=O)Nc1ccccc1Cl)n2C | 611
29 | O=C(Nc1ccc(Cl)cc1)N1CCc2nc(-c3ccc(Cl)cc3)ncc2C1 | 1130
30 | Cc1ccc(Nc2cc(-n3ccnc3)ncn2)cc1 | 651
31 | Cc1cc(F)ccc1NC(=O)C1CCN(C(=O)c2ncn3c2COC(c2ccc(F)cc2)C3)CC1 (centres undefined) | 736
32 | COc1ccccc1N1CCN(C(=O)C2CCN(c3nc(NC(C)=O)ns3)CC2)CC1 | 641
33 | Cc1ccc(N2C=C(C(=O)N3CCOCC3)S(=O)(=O)c3ccc(Cl)cc32)cc1Cl | 970
34 | O=C(Nc1ccc(F)cc1F)c1c(O)c2cccnc2n(-c2ccc(F)cc2)c1=O | 957
35 | Cc1nn(-c2ccccc2)c(C)c1S(=O)(=O)N1CCN(c2ccccn2)CC1 | 664
36 | CCNC(=O)c1cc(C(C)C)[nH]n1 | 618
37 | O=C(NC1CCCC1)N1CCC(c2nc(C3CCOCC3)no2)CC1 | 691
38 | COc1ccc2c(c1)C1(CCN(C(=O)c3cccs3)C1)C(=O)N2C (centres undefined) | 738
39 | O=C(NCc1cccc(Oc2ccc(F)cc2)c1)c1cccnc1 | 588
40 | Cc1cc(F)ccc1NC(=O)C1CCN(C(=O)C2Sc3ccccc3NC2=O)CC1 (centres undefined) | 738
41 | CCCN(CC1CCOC1)C(=O)Nc1cc(Cl)ccc1OC (centres undefined) | 961
42 | COCc1cn(C2CN(C(=O)c3ccc(OC)cc3OC)C2)nn1 | 622
43 | COc1cc(Nc2c(C(=O)N3CCCC3)cnc3nc(C)ccc23)cc(OC)c1 | 616
44 | COc1ccc(N2C=C(C(=O)N3CCOCC3)S(=O)(=O)c3ccc(Cl)cc32)cc1 | 770
45 | CCc1nc2cc(N3CCC(C(=O)N4CCC5(CC4)OCCO5)CC3)cnc2nc1CC | 723
46 | O=C(Nc1ccc(F)cc1F)Nc1nccn(-c2cccc(F)c2)c1=O | 971
47 | Cc1noc([C@@H]2CN(C(=O)c3ccc(Br)o3)C[C@H]2CO)n1 | 657
48 | CN(C)[C@@H]1CN(Cc2ccc(F)c(F)c2)CC[C@@H]1CO | 434
49 | CC(=O)Nc1ccc(NC(=O)c2cccc(N3C(=O)NC4CC3(C)Oc3ccccc34)c2)cc1 (centres undefined) | 702
50 | Cc1cc(C)c(NC(=O)C2CCN(c3c(C(=O)N4CCCCC4)cnc4snc(C)c34)CC2)c(C)c1 | 927
51 | CN(CCc1noc(-c2ccc(F)cc2)n1)C(=O)Nc1cc(F)ccc1F | 924
52 | CCOc1ccc2nc(C(=O)NCCN3CCc4ccccc4C3)cn2n1 | 577
53 | CC(=O)Nc1ccc(NC(=O)C2CCN(S(=O)(=O)c3ccc4c(c3)sc(=O)n4C)CC2)cc1 | 686

Next, values leading:

Row | RP-LC retention time [s] | SMILES
54 | 612 | Cc1cccc(NC(=O)Nc2cnn(-c3ncncc3N3CCOCC3)c2)c1C
55 | 1180 | COc1ccc(Cn2c(=O)c3sccc3n(Cc3nc(-c4ccc(C)c(C)c4)no3)c2=O)cc1
56 | 1170 | COc1ccc(-n2c(=O)c(C(=O)NCc3ccc(F)cc3F)c(O)c3cccnc32)cc1
57 | 556 | c1cn(-c2cc(N3CCCC3)ncn2)cn1
58 | 998 | O=C(c1cccnc1)N1CCc2c([nH]c3ccccc23)C1c1ccc(Cl)cc1 (centres undefined)
59 | 1000 | Cc1cc(-c2ccc3c(c2)CCN3C(=O)Cc2ccc(F)cc2)on1
60 | 780 | CCCNC(=O)c1cn(-c2cc(-c3nc(CC)no3)ccn2)cn1
61 | 1190 | CCn1c(C(=O)NCc2ccccc2Cl)cc2sc(Cl)cc21
62 | 785 | O=C(N1CCC[C@H]1c1nc(-c2ccccc2)n[nH]1)C1(c2ccccc2)CC1
63 | 582 | O=C(NCc1cccc(F)c1)c1ccc2c(c1)ncn2CCN1CCCC1
64 | 764 | O=C(c1cccs1)N1CCC2(CC1)NC(=O)N(Cc1ccc(F)cc1)C2=O
65 | 809 | CCOC(=O)c1nc(N2CCN(c3ccccc3OC)CC2)c2ccccc2n1
66 | 960 | COCc1cc(=O)n(CC(=O)Nc2ccc(C(C)C)cc2)c(N2CCOCC2)n1
67 | 662 | Cc1ccc(CN2CCn3c(nn(C)c3=O)C2)cc1C
68 | 804 | O=C(Nc1ccc(N2CCN(C3CCCC3)C2=O)nc1)c1ccccc1F
69 | 869 | O=S(=O)(NCCOc1ccccc1)c1ccccc1Cl
70 | 588 | CCOCCCNC(=O)c1ccc2c(c1)nc1n2CCCCC1
71 | 1150 | CCOC(=O)c1cnc2c(-c3ccc(Cl)cc3)c(COC)nn2c1N

Row | RP-LC retention time [s] | SMILES
72 | 810 | CCOC(=O)CNC(=O)NCc1cccn1Cc1cccc(F)c1
73 | 753 | CCS(=O)(=O)Nc1cccc(C2=NN(S(=O)(=O)CC)C(c3ccco3)C2)c1 (centres undefined)
74 | 760 | CCc1noc(-c2ccnc(-n3ncc(C(=O)N4CCOCC4)c3C)c2)n1
75 | 1190 | CCc1ccc(-c2noc(CSc3nc4cc5c(cc4c(=O)n3CCOC)OCO5)n2)cc1
76 | 747 | O=C(c1cccnc1)N1CCC(COCc2ccccc2)CC1
77 | 642 | c1ccc(-c2nc(-c3ccncc3)no2)c(OC2CCN(CC3CC3)C2)c1 (centres undefined)
78 | 1020 | CCc1noc(-c2ccnc(-n3ncc(C(=O)N4CCC(C)CC4)c3C)c2)n1
79 | 725 | O=C(NCc1ccccc1)c1cn(-c2ccc(NC(=O)C3CC3)cn2)cn1
80 | 724 | Brc1ccccc1Cc1nc(-c2ccc3nncn3c2)no1
81 | 665 | COc1ccc(NC(=O)Cn2ccc3c(=O)n(C)c(=O)n(C)c32)c(OC)c1
82 | 854 | O=C(Nc1ccc2c(c1)OCO2)c1nnc(C2CCCN2C(=O)NCc2ccc(F)cc2)s1 (centres undefined)
83 | 756 | COC(=O)c1cc(OCC(=O)Nc2ccccc2F)c2cc(OC)c(OC)cc2n1
84 | 647 | CCn1cc(CCNC(=O)c2cccnc2SC)c2cccnc21
85 | 603 | CC(C)c1nc2cccnc2n1CCN1CCN(C(=O)Nc2ccccc2Br)CC1
86 | 958 | CCc1noc(C2CCCCN2Cc2nc(Cc3ccccc3)no2)n1 (centres undefined)
87 | 995 | Cc1cc(=O)n(CC(=O)Nc2cccc(C#N)c2)c(-c2ccc(F)cc2)n1
88 | 626 | Cc1nn(CC(=O)N2CCN(C)CC2)c(=O)c2cc(-c3ccccc3)nn12
89 | 790 | Cc1cc(S(=O)(=O)N2CC(F)(F)C[C@H]2CN2CCc3ccccc3C2)ccc1F
